Data published in paper PMC9905731, “PIN1 and PIN4 inhibition via parvulin impeders Juglone, PiB, ATRA, 6,7,4′-THIF, KPT6566, and EGCG thwarted hepatitis B virus replication” (Frontiers in Microbiology, 2023).
Where two headings read alike, the source gives them in different places.

Legend:
Format in all cases: cell-based, hepatitis B virus
[1] = tested on: HBV replication in Huh7, HepAD38, HepG2, and HepG2.2.15 cells
HBV cccDNA [2] = test: HBV cccDNA levels by Hirt extraction and Southern blotting; conditions: HBV-infected HepG2-hNTCP-C9 cells, 10 days; 20 μM Juglone or PiB, 30 μM ATRA, 6,7,4′-THIF or KPT-6566, 40 μM EGCG
Protocol: Mock-infected HepG2-hNTCP-C9 cells (lane 1) or HBV-infected HepG2-hNTCP-C9 cells (lanes 2–3) were treated with solvent (lane 2) or 20 μM Juglone, 20 μM PiB, 30 μM ATRA, 30 μM 6,7,4′-THIF, 30 μM KPT6566, or 40 μM EGCG (lane 3) for 10 days. HBV cccDNA levels were determined by the Hirt extraction method, as described previously ([Saeed et al., 2019]). Data are presented from three independent experiments.
(§1) HBV cccDNA synthesis was examined using the protein-free Hirt cccDNA extraction method. Briefly, HBV-infected PIN1 or PIN4 KD cells at approximately 100% confluency were incubated for 10 days, lysed with 10 mM EDTA and 10 mM Tris–HCl [pH 7.5] containing 0.6% SDS-TE buffer, treated for 16 h by adding 5 M NaCl to the final concentration of 1 M, and precipitated by centrifugation for 30 min at 14,500 × g. The supernatants were subjected to multiple phenol extractions (two times) followed by cccDNA extraction via phenol/chloroform. The supernatant containing cccDNA was precipitated by ethanol and furthermore analyzed by Southern blotting. The HBV cccDNA ChIP was performed using cccDNA-specific primers and analyzed by PCR (GeneAmp 2,700, Applied Biosystems), as described previously ([Bichko et al., 1985]; [Piracha et al., 2018], [2020]; [Saeed et al., 2019], [2021]). From the clinical specimens, HBV cccDNA levels were examined, as described previously ([Zhang et al., 2017]), using 251F 5′-GAC TYG TGG TGG ACT TCT C-3′ and 1190R 5′-TCA GCA AAY ACT YGG CA-3′ set of primers.

HBV cccDNA [3] = test: Chromatin immunoprecipitation (ChIP) in HBV-infected HepG2-hNTCP-C9-PIN4 KD cells; conditions: 20 μM Juglone or PiB, 30 μM ATRA, 6,7,4′-THIF or KPT6566, 40 μM EGCG, vs solvent
Protocol: Chromatin immunoprecipitation (ChIP) was performed in HBV-infected HepG2-hNTCP-C9 PIN1 or PIN4 KD cells to determine the comparative effects of these parvulins on cccDNA (Figure 11D). The chromatins were prepared and immunoprecipitated with IgG or anti-PIN1, HBc, PIN4, acetylated H3 (anti-AcH3), RNA polymerase-II (anti-RNA Pol-II), and histone H3 antibodies and furthermore analyzed by semiquantitative PCR (GeneAmp PCR 2700, Applied Biosystems; [Bichko et al., 1985]; [Saeed et al., 2019], [2021]; [Piracha et al., 2020]). In contrast to endogenous PIN1, the endogenous PIN4 was recruited to HBV cccDNA. Of note, upon PIN1 KD, the recruitment of HBc protein to the cccDNA remains unchanged.
(A–F) HepG2-hNTCP-C9-PIN4 KD cells were mock-infected (lane 1) or HBV infected (lanes 2–3) and treated with solvent (lane 2), or parvulin inhibitors (A) 20 μM Juglone, (B) 20 μM PiB, (C) 30 μM ATRA, (D) 30 μM 6,7,4′-THIF, (E) 30 μM KPT6566, and (F) 40 μM EGCG. The chromatin solutions and ChIP were performed in HBV-infected HepG2-hNTCP-C9-PIN4 KD cells, as described in the “Material and Methods” section and were subjected to immunoprecipitation with normal rabbit polyclonal IgG, anti-PIN1, anti-PIN4, anti-RNA Pol II, anti-acetyl H3, or anti-H3 antibodies. The immunoprecipitated chromatins were analyzed by PCR. The presented data are representative of three independent experiments.
as §1

[4] = 72 h, 20 μM Juglone or PiB, 30 μM ATRA, 6,7,4′-THIF or KPT-6566, 40 μM EGCG, vs solvent

Structure (SMILES)	HBV RNA levels / HBV transcription (Northern blotting) [1]	HBc expression, core particle synthesis and HBV DNA levels [1]	HBV cccDNA levels (HBV cccDNA [2])	recruitments of endogenous PIN4 and HBc onto HBV cccDNA (HBV cccDNA [3])	HBV RNA levels / HBV transcription (Northern blotting) [1, 4]	HBc expression, core particle synthesis and HBV DNA levels [1, 4]
CC1=C(/C=C/C(C)=C/C=C/C(C)=C/C(=O)O)C(C)(C)CCC1 [ATRA, All-trans-retinoic acid]	reduced	reduced	without affecting HBV cccDNA levels	reduced	–	–
O=C(O[C@@H]1Cc2c(O)cc(O)cc2O[C@@H]1c1cc(O)c(O)c(O)c1)c1cc(O)c(O)c(O)c1 [EGCG, Epigallocatechin gallate]	–	–	without affecting HBV cccDNA levels	reduced	lower levels	reduced significantly
O=C1C=CC(=O)c2c(O)cccc21 [Juglone, 5-hydroxyl-1,4-naphthoquinone]	–	–	without affecting HBV cccDNA levels	reduced	significantly decreased	dramatically reduced
O=c1c(-c2ccc(O)cc2)coc2cc(O)c(O)cc12 [6,7,4′-THIF, 6,7-dihydroxy-3-(4-hydroxyphenyl)-4H-chromen-4-one]	–	–	without affecting HBV cccDNA levels	reduced	significantly aborted	significantly aborted
CC(C)(C)c1ccc(S(=O)(=O)N=C2C=C(SCC(=O)O)C(=O)c3ccccc32)cc1 [KPT6566, 2-[[4-[[[4-(1,1-dimethylethyl)phenyl]sulfonyl]imino]-1,4-dihydro-1-oxo-2-naphthalenyl]thio] acetic acid]	–	–	without affecting HBV cccDNA levels	reduced	restricted	restricted
CCOC(=O)CN1C(=O)c2ccc3c4c(ccc(c24)C1=O)C(=O)N(CC(=O)OCC)C3=O [PiB, 1,3,6,8-tetrahydro-1,3,6,8-tetraoxo-benzo [lmn][3,8] phenanthroline-2,7-diacetic acid, 2,7-diethyl ester]	–	–	without affecting HBV cccDNA levels	reduced	significantly reduced	notably abrogated
